Molecular target: T1, human Nav1.7 (hNav1.7) (Homo sapiens, UniProt Q15858)
T1 construct: expressed in transfected cells
Test: hNav1.7 whole-cell patch-clamp electrophysiology (automated PatchXpress 7000A or manual) in stably expressing 293 cells
Format: cell-based
How it was run: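 Stably transfected 293 cells lacking endogenous sodium channels; peak current evoked by depolarizing pulses during increasing compound concentrations, automated at ~20% fractional inactivation, or manually at −140 mV (resting) and ~20% inactivation. Block taken at steady state, corrected for rundown; IC50 by Hill fit.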

[1] = human Nav1.7 stably expressed in 293 cells, whole-cell patch clamp, average IC50 from Hill fit

T1 sequence (Q15858 whole entry): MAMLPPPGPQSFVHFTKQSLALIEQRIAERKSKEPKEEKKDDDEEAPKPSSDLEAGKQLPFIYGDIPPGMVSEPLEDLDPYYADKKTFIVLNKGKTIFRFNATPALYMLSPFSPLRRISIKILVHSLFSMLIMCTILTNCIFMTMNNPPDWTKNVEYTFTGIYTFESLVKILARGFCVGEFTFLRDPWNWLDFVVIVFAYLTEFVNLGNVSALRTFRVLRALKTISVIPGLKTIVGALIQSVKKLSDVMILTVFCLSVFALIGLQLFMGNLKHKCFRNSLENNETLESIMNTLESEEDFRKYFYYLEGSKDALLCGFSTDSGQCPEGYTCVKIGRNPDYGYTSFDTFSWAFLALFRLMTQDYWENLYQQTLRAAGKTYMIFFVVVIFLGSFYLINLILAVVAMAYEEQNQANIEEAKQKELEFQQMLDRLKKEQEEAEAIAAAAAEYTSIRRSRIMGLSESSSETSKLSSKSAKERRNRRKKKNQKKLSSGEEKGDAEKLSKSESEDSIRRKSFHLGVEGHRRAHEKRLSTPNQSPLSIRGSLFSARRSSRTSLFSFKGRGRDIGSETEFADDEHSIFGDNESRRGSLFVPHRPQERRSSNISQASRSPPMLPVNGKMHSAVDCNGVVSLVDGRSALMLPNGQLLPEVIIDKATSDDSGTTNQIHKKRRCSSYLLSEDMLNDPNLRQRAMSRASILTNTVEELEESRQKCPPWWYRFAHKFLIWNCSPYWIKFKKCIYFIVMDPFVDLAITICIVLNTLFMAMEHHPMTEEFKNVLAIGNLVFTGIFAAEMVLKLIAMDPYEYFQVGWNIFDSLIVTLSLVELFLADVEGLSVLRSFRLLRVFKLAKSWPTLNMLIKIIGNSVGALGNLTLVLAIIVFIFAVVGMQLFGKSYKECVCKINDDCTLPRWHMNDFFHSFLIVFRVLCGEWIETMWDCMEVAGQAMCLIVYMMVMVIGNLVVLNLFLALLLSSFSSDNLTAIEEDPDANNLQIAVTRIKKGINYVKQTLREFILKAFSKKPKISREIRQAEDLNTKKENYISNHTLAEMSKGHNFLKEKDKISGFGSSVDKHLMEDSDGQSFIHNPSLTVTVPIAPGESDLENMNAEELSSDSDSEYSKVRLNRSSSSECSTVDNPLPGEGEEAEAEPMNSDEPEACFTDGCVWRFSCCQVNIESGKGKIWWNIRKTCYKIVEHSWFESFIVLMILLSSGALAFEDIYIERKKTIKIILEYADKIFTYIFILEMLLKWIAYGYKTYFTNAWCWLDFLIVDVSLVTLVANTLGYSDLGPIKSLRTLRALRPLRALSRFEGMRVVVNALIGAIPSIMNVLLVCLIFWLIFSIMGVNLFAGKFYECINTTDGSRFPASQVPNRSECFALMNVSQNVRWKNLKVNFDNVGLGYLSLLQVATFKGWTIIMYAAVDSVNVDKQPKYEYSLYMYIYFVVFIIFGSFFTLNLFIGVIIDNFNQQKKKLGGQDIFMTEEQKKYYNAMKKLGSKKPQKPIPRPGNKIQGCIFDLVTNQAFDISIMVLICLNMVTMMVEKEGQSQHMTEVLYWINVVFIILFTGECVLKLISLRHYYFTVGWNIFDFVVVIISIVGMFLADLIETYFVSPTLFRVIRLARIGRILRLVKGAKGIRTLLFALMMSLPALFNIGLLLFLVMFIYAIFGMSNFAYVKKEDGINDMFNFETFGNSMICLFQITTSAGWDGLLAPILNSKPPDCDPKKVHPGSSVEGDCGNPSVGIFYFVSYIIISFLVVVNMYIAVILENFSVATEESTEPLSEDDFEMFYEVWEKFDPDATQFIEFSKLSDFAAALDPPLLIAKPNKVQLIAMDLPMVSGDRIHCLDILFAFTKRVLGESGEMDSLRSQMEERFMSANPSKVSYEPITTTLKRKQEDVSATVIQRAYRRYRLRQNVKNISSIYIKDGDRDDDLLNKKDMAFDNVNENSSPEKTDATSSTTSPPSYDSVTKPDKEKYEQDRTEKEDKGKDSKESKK

| Compound | IC50 (average IC50, human Nav1.7) [µM] | other results |
| --- | --- | --- |
| CNC(=O)c1cccc(Nc2ncnc(N3CC(Oc4ccc(Cl)cc4F)C3)n2)c1 [Example 21] | 0.33 |  |
| CCn1c2c(c3ccccc31)CN(c1ncnc(Nc3cccc(C(=O)NC)c3)n1)CC2 [Example 127] | 2.31 |  |
| CNC(=O)c1cccc(Nc2ncnc(N3CCC(COCC4CC4)CC3)n2)c1 [Example 261] | 17.7 |  |
| CNC(=O)c1cc(F)cc(Nc2ncnc(N3CC(COc4ccc(Cl)cc4)C3)n2)c1 [Example 173] | 4.56 |  |
| CNC(=O)c1cccc(Nc2ncnc(N3CC(OCc4ccc(Cl)cc4)C3)n2)c1 [Example 113] | 1.82 |  |
| CNC(=O)c1cccc(Nc2ncnc(NCc3noc(C(=O)NC4CC4)n3)n2)c1 [Example 289] |  | IC50 (average IC50): > 30 µM |
| CCNC(=O)c1cccc(Nc2ncnc(N3CC(Oc4ccc(F)cc4)C3)n2)c1 [Example 102] | 1.51 |  |
| CNC(=O)c1cccc(Nc2ncnc(N3CCC(COc4ccc(F)c(F)c4)CC3)n2)c1 [Example 93] | 1.3 |  |
| CNC(=O)c1cc(Nc2ncnc(N3CC(Oc4ccc(Cl)cc4)C3)n2)ccc1N(C)C [Example 50] | 0.65 |  |
| CNC(=O)c1cccc(Nc2ncnc(N3CCc4cc(C)ccc4C3)n2)c1 [Example 185] | 5.28 |  |
| CNC(=O)c1cccc(Nc2ncnc(N3CC(C)(Oc4ccccc4)C3)n2)c1 [Example 263] |  | IC50 (average IC50): 18.1 µM |
| CNC(=O)c1cccc(Oc2ncnc(N3CC(Oc4ccc(Cl)cc4F)C3)n2)c1 [Example AE, 3-((4-(3-(4-chloro-2-fluorophenoxy)-1-azetidinyl)-1,3,5-triazin-2-yl)oxy)-N-methylbenzamide] |  | IC50 [1]: > 30 µM |
| CNC(=O)c1cccc(Nc2ncnc(N3CCC(Oc4ccccc4F)CC3)n2)c1 [Example 238] | 10.8 |  |
| CNC(=O)c1cccc(Nc2ncnc(N3CC(COc4ccc(C#N)cc4)C3)n2)c1 [Example 258] | 16.9 |  |
| CNC(=O)c1cccc(Nc2ncnc(N3CCN(c4ccc(Cl)cc4)CC3)n2)c1 [Example 157] | 3.36 |  |
| CNC(=O)c1c(F)ccc(Nc2ncnc(N3CC(Oc4ccc(Cl)cc4)C3)n2)c1F [Example 183] | 5.19 |  |
| CNC(=O)c1cccc(Nc2ncnc(N3CC(Oc4cccc(-c5ccccc5)c4)C3)n2)c1 [Example 199] | 7.02 |  |
| CNC(=O)c1cccc(Nc2ncnc(N3CC(Oc4c(F)cccc4F)C3)n2)c1 [Example 274] |  | IC50 (average IC50): 22.1 µM |
| CNC(=O)c1cccc(Nc2ncnc(N3CC(COc4ccccc4OC(F)(F)F)C3)n2)c1 [Example 229] | 9.44 |  |
| CNC(=O)c1cccc(Nc2nccc(N3CC(Oc4ccc(F)cc4Cl)C3)n2)c1 [Example I, 3-((4-(3-(2-chloro-4-fluorophenoxy)-1-azetidinyl)-2-pyrimidinyl)amino)-N-methylbenzamide] |  | IC50 [1]: 0.63 µM |
| CNC(=O)c1cccc(Nc2ncnc(N3CCN(c4ccccc4C)CC3)n2)c1 [Example 89] | 1.26 |  |

| Compound | IC50 (average IC50, human Nav1.7) [µM] | other results |
| --- | --- | --- |
| CNC(=O)c1cccc(Nc2ncnc(N3CCc4ccc(OC)cc4C3)n2)c1 [Example 220] | 8.85 |  |
| NC(=O)c1cccc(Nc2ncnc(N3CCc4cc(Br)ccc4C3)n2)c1 [Example 221] | 8.9 |  |
| CC(C)(C)NC(=O)c1cccc(Nc2ncnc(N3CC(Oc4ccc(F)cc4)C3)n2)c1 [Example 213] | 8.39 |  |
| CNC(=O)c1cccc(Nc2ncnc(N3CCC3COc3ccc(Cl)cc3)n2)c1 (stereo not drawn) [Example 211] | 8.3 |  |
| CNC(=O)c1cccc(Nc2ncnc(N3CCN(c4ccc(C)c(C)c4)CC3)n2)c1 [Example 53] | 0.69 |  |
| CNC(=O)c1cccc(Nc2nc(N3CC(Oc4ccc(Cl)cc4F)C3)ncc2F)c1 [Example AK, 3-((2-(3-(4-chloro-2-fluorophenoxy)-1-azetidinyl)-5-fluoro-4-pyrimidinyl)amino)-N-methylbenzamide] |  | IC50 [1]: 0.43 µM |
| CNC(=O)c1cc(F)cc(Nc2ncnc(NCCCOc3ccc(OC(F)(F)F)cc3)n2)c1 [Example 282] |  | IC50 (average IC50): > 30 µM |
| CNC(=O)c1cccc(Nc2ncnc(N3CCc4c(cnn4-c4ccccc4)C3)n2)c1 [Example 268] |  | IC50 (average IC50): 20.9 µM |
| CNC(=O)c1cccc(Nc2nccc(N3CC(Oc4ccc(Cl)cc4F)C3)n2)c1 [Example M, 3-((4-(3-(4-chloro-2-fluorophenoxy)-1-azetidinyl)-2-pyrimidinyl)amino)-N-methylbenzamide] |  | IC50 [1]: 2.3 µM |
| CCNC(=O)c1cccc(Nc2ncnc(N3CC(Oc4ccc(Cl)cc4F)C3)n2)c1 [Example R, 3-(4-(3-(4-chloro-2-fluorophenoxy)azetidin-1-yl)-1,3,5-triazin-2-ylamino)-N-ethylbenzamide] |  | IC50 [1]: 1.14 µM |
| NC(=O)c1cccc(Nc2ncnc(N3CC(Oc4ccc(F)cc4)C3)n2)c1 [Example 237] | 10.7 |  |
| CNC(=O)c1cccc(Nc2ncnc(N3CCN(S(=O)(=O)c4ccc(OC(F)(F)F)cc4)CC3)n2)c1 [Example 126] | 2.29 |  |
| CNC(=O)c1cccc(Nc2ncnc(N3CC(Oc4ccc(Cl)cc4Cl)C3)n2)c1 [Example 51] | 0.65 |  |
| CNC(=O)c1cccc(Nc2ncnc(N3CCc4c(cccc4OC(F)(F)F)C3)n2)c1 [Example 123] | 2.13 |  |
| CNC(=O)c1cccc(Nc2ncnc(N3CC(COCc4ccc(C(F)(F)F)cc4)C3)n2)c1 [Example 189] | 5.56 |  |
| CCc1cccc(OC2CN(c3ncnc(Nc4cccc(C(=O)NC)c4)n3)C2)c1 [Example 17] | 0.3 |  |
| CNC(=O)c1cccc(Nc2ncnc(N3CCN(Cc4ccccc4OC(F)(F)F)CC3)n2)c1 [Example 191] | 5.6 |  |
| CNC(=O)c1cccc(Nc2ncnc(N3CCN(c4ccc(F)cc4)CC3)n2)c1 [Example 198] | 6.83 |  |
| CNC(=O)c1cccc(Nc2ncnc(N3CC(Oc4ccc(C(F)(F)F)cc4)C3)n2)c1 [Example 35] | 0.47 |  |
| CNC(=O)c1cccc(Nc2cccc(N3CC(Oc4ccc(F)cc4)C3)n2)c1 [Example 56] | 0.75 |  |
| CNC(=O)c1cccc(Nc2ncnc(N3CC(Oc4ccc(Cl)c(Cl)c4)C3)n2)c1 [Example 39] | 0.5 |  |

| Compound | IC50 (average IC50, human Nav1.7) [µM] | other results |
| --- | --- | --- |
| CNC(=O)c1cccc(Nc2ncnc(N3CCN(c4ccccc4C(F)(F)F)CC3)n2)c1 [Example 178] | 4.78 |  |
| CNC(=O)c1cccc(Nc2ncnc(N3CC(COc4ccc(OC)cc4)C3)n2)c1 [Example 223] | 9.19 |  |
| CNC(=O)c1cccc(Nc2ncnc(N3CCC(c4nc(-c5ccccc5)no4)CC3)n2)c1 [Example 140] | 2.79 |  |
| CNC(=O)c1cccc(Nc2ncnc(N3CC=C(c4ccc(OC(F)(F)F)cc4)CC3)n2)c1 [Example 136] | 2.72 |  |
| CNC(=O)c1cccc(Nc2ncnc(N3CCC(n4cc(-c5ccccc5)cn4)CC3)n2)c1 [Example 139] | 2.74 |  |
| CNC(=O)c1cc(Nc2ncnc(N3CC(COc4ccc(Cl)cc4)C3)n2)ccc1F [Example 70] | 0.89 |  |
| CNC(=O)c1cccc(Nc2ncnc(N3CC(Oc4cccc(OC)c4)C3)n2)c1 [Example 80] | 1.03 |  |
| CNC(=O)c1cccc(Nc2nc(N3CC(Oc4ccc(F)cc4)C3)ncc2F)c1 [Example AH, 3-((5-fluoro-2-(3-(4-fluorophenoxy)-1-azetidinyl)-4-pyrimidinyl)amino)-N-methylbenzamide] |  | IC50 [1]: 0.34 µM |
| CNC(=O)c1cccc(Nc2nccc(N3CC(Oc4ccc(Cl)c(Cl)c4)C3)n2)c1 [Example A, 3-(4-(3-(3,4-dichlorophenoxy)azetidin-1-yl)pyrimidin-2-ylamino)-N-methylbenzamide] |  | IC50 [1]: 0.78 µM |
| CNC(=O)c1ccc(OC)c(Nc2ncnc(N3CC(Oc4ccc(Cl)cc4)C3)n2)c1 [Example 283] |  | IC50 (average IC50): > 30 µM |
| CNC(=O)c1cccc(Nc2ncnc(N3CC(Oc4c(Cl)cccc4Cl)C3)n2)c1 [Example 63] | 0.82 |  |
| CNC(=O)c1cccc(Nc2ncnc(N3CC(Oc4cc(Cl)ccc4Cl)C3)n2)c1 [Example 18] | 0.31 |  |
| CNC(=O)c1cc(Nc2ncnc(N3CC(COc4ccc(Cl)cc4)C3)n2)ccc1Cl [Example 90] | 1.26 |  |
| CNC(=O)c1cccc(Nc2ncnc(N3CCc4cc(OCCC(F)(F)F)ccc4C3)n2)c1 [Example 77] | 0.98 |  |
| CNC(=O)c1cccc(Nc2ncnc(N3CCN(c4ccc(C(F)(F)F)cc4)CC3)n2)c1 [Example 74] | 0.96 |  |
| CNC(=O)c1cccc(Nc2ncnc(N3CC(Oc4ccc(C(C)(C)C)cc4)C3)n2)c1 [Example 149] | 2.99 |  |
| CNC(=O)c1cccc(Nc2ncnc(N3CC(COc4cccc5ccccc45)C3)n2)c1 [Example 253] | 15.2 |  |
| CNC(=O)c1cccc(Nc2ncnc(N3CCN(c4cccc(F)c4)CC3)n2)c1 [Example 60] | 0.79 |  |
| CNC(=O)c1cccc(Nc2ncnc(N3CC(Oc4ccccc4OC(F)(F)F)C3)n2)c1 [Example 181] | 4.93 |  |
| CNC(=O)c1cccc(Nc2ncnc(NCc3cn4cc(C)ccc4n3)n2)c1 [Example 286] |  | IC50 (average IC50): > 30 µM |
| CNC(=O)c1cccc(Nc2ncnc(N3CCC(Oc4ccc(C(F)(F)F)cc4)CC3)n2)c1 [Example 118] | 2.02 |  |

Reference: patent US9334269B2, “Carboxamides as inhibitors of voltage-gated sodium channels” (AMGEN INC., priority 2010, dated 2016)
